Bounds are passed on as bounds.

T2 sequence (P41145 whole entry): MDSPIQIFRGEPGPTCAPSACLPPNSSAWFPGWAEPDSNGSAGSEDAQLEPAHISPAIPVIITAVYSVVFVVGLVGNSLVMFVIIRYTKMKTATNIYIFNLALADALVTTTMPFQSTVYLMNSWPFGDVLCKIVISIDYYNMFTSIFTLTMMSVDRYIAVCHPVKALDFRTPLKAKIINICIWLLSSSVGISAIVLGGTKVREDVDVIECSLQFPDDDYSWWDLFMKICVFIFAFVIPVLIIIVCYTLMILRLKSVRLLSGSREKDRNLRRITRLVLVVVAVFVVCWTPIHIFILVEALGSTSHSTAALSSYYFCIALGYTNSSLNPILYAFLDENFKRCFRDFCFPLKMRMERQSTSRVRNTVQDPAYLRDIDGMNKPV

In the first test the target is Delta-type opioid receptor (Homo sapiens, UniProt P41143). Description: Displacement of [125I]IOXY from human delta opioid receptor expressed in CHO cells coexpressing human recombinant DOR after 2 hrs by liquid scintillation counting. It is filed as cell-based.
Sequence of Delta-type opioid receptor (P41143 whole entry): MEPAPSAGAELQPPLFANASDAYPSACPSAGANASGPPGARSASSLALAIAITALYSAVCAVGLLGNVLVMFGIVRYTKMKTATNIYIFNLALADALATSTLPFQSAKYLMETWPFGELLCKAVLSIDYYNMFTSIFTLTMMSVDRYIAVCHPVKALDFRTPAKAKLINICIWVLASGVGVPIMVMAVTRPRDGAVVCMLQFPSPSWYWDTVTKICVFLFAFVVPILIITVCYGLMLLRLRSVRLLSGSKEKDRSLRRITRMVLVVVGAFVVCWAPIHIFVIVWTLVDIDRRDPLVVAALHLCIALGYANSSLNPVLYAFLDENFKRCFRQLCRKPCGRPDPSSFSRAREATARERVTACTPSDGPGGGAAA
Conditions: not given
(In general: In a radioligand displacement assay an active substance lowers the binding of a labelled ligand.)
Take `CN1CC[C@]23C[C@H]1CC[C@H]2Oc1c(O)cccc13` (racemic): the inhibitory constant (Ki) is greater than 4900 nM.

For the compound `Oc1cccc2c1O[C@@H]1CC[C@@H]3C[C@]21CCN3CCc1ccccc1` (racemic), the inhibition constant Ki is greater than 4900 nM.

Consider `Oc1ccc2c(c1)[C@]13CCN(CCc4ccccc4)[C@H](CC[C@@H]1O2)C3`, for which the Ki was greater than 5000 nM.

Consider `Oc1ccc2c(c1)[C@]13CCN(CCc4ccccc4)[C@H](CC[C@H]1O2)C3` (racemic), for which the Ki is greater than 4900 nM.

For the compound `Oc1cccc2c1O[C@@H]1CC[C@H]3C[C@@]21CCN3CCc1ccccc1`, the Ki is greater than 5000 nM.

`CN1CC[C@]23C[C@H]1CC[C@H]2Oc1ccc(O)cc13` (racemic): the Ki was greater than 4900 nM.

Consider `Oc1ccc2c(c1)[C@@]13CCN(CCc4ccccc4)[C@@H](CC[C@H]1O2)C3`, for which the inhibition constant Ki was greater than 5000 nM.

The test is the same for the next values; noted with them: cho.
Take `Oc1cccc2c1O[C@H]1CC[C@@H]3C[C@]21CCN3CCc1ccccc1`: the Ki is greater than 5000 nM.

For a further test, the target named is T1, Mu-type opioid receptor (Homo sapiens, UniProt P35372). Description: biochemical. It is filed as cell-based, CHO.
T1 sequence (P35372 whole entry): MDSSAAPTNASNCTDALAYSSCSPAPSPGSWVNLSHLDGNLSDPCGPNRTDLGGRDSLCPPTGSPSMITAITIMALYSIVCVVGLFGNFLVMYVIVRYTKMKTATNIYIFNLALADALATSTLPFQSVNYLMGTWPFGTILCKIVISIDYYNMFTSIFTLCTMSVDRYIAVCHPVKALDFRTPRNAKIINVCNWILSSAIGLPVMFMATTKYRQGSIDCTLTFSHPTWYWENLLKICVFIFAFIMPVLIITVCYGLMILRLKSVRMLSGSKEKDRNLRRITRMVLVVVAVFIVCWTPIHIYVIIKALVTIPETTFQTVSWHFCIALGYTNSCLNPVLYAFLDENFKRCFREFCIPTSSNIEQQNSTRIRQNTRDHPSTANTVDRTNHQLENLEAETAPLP
Conditions: not given
`CN1CC[C@]23C[C@H]1CC[C@H]2Oc1c(O)cccc13` (racemic) returned an inhibitory constant (Ki) greater than 2800 nM.

On to `Oc1cccc2c1O[C@@H]1CC[C@@H]3C[C@]21CCN3CCc1ccccc1` (racemic), for which the affinity corresponds to a Ki of 167 nM.

The compound `Oc1ccc2c(c1)[C@]13CCN(CCc4ccccc4)[C@H](CC[C@@H]1O2)C3` yielded a Ki of 250 nM.

For the compound `Oc1ccc2c(c1)[C@]13CCN(CCc4ccccc4)[C@H](CC[C@H]1O2)C3` (racemic), affinity was put at a Ki of 486 nM.

For `Oc1cccc2c1O[C@@H]1CC[C@H]3C[C@@]21CCN3CCc1ccccc1`, the affinity corresponds to a Ki of 49 nM.

In turn, `CN1CC[C@]23C[C@H]1CC[C@H]2Oc1ccc(O)cc13` (racemic) showed a Ki greater than 2800 nM.

Turning to `Oc1ccc2c(c1)[C@@]13CCN(CCc4ccccc4)[C@@H](CC[C@H]1O2)C3`, the Ki was 352 nM.

Staying with this test, now noted: cho.
As for `Oc1cccc2c1O[C@H]1CC[C@@H]3C[C@]21CCN3CCc1ccccc1`, the affinity, expressed as Ki, was 384 nM.

Another test addresses T2, Kappa-type opioid receptor (Homo sapiens, UniProt P41145). As to the kind of experiment: Displacement of [125I]IOXY from human kappa opioid receptor expressed in CHO cells coexpressing human recombinant KOP after 2 hrs by liquid scintillation counting. The format is cell-based.
Conditions: not given
Take `CN1CC[C@]23C[C@H]1CC[C@H]2Oc1c(O)cccc13` (racemic): the Ki amounted to 7500 nM.

Turning to `Oc1cccc2c1O[C@@H]1CC[C@@H]3C[C@]21CCN3CCc1ccccc1` (racemic), the inhibition constant Ki is 171 nM.

With `Oc1ccc2c(c1)[C@]13CCN(CCc4ccccc4)[C@H](CC[C@@H]1O2)C3`, the inhibition constant Ki was found to be 199 nM.

On to `Oc1ccc2c(c1)[C@]13CCN(CCc4ccccc4)[C@H](CC[C@H]1O2)C3` (racemic), for which the Ki worked out at 98 nM.

Take `Oc1cccc2c1O[C@@H]1CC[C@H]3C[C@@]21CCN3CCc1ccccc1`: the Ki came to 42 nM.

Take `CN1CC[C@]23C[C@H]1CC[C@H]2Oc1ccc(O)cc13` (racemic): the inhibitory constant (Ki) was greater than 8600 nM.

On to `Oc1ccc2c(c1)[C@@]13CCN(CCc4ccccc4)[C@@H](CC[C@H]1O2)C3`, for which the inhibition constant Ki turned out to be 102 nM.

The same test, now with this note: cho.
Consider `Oc1cccc2c1O[C@H]1CC[C@@H]3C[C@]21CCN3CCc1ccccc1`, for which the inhibitory constant (Ki) is 367 nM.

The target in another test is T2, Kappa-type opioid receptor.
Test: not given
The conditions noted are these: CHO.
As to `Oc1cccc2c1O[C@@H]1CC[C@@H]3C[C@]21CCN3CCc1ccccc1` (racemic), the Ke amounted to 163 nM.

In turn, `Oc1ccc2c(c1)[C@]13CCN(CCc4ccccc4)[C@H](CC[C@@H]1O2)C3` displayed a Ke of 100 nM.

The compound `Oc1cccc2c1O[C@H]1CC[C@@H]3C[C@]21CCN3CCc1ccccc1` yielded a Ke of 761 nM.

`Oc1ccc2c(c1)[C@]13CCN(CCc4ccccc4)[C@H](CC[C@H]1O2)C3` (racemic) came in with a Ke of 46 nM.

As to `Oc1cccc2c1O[C@@H]1CC[C@H]3C[C@@]21CCN3CCc1ccccc1`, the Ke worked out at 22 nM.

Turning to `Oc1ccc2c(c1)[C@@]13CCN(CCc4ccccc4)[C@@H](CC[C@H]1O2)C3`, the Ke is 103 nM.

In the next test the target is T1, Mu-type opioid receptor.
Test: not given
As to conditions: CHO.
Regarding `Oc1cccc2c1O[C@@H]1CC[C@@H]3C[C@]21CCN3CCc1ccccc1` (racemic), the Ke was determined as 274 nM.

Regarding `Oc1ccc2c(c1)[C@]13CCN(CCc4ccccc4)[C@H](CC[C@@H]1O2)C3`, the Ke is 47 nM.

The compound `Oc1cccc2c1O[C@H]1CC[C@@H]3C[C@]21CCN3CCc1ccccc1` yielded a Ke of 328 nM.

For the compound `Oc1ccc2c(c1)[C@]13CCN(CCc4ccccc4)[C@H](CC[C@H]1O2)C3` (racemic), the Ke was 23 nM.

`Oc1cccc2c1O[C@@H]1CC[C@H]3C[C@@]21CCN3CCc1ccccc1` showed a Ke of 31 nM.

`Oc1ccc2c(c1)[C@@]13CCN(CCc4ccccc4)[C@@H](CC[C@H]1O2)C3` yielded a Ke of 227 nM.

Broadly, the Ki is a measure of affinity in units of concentration, obtained from inhibition or displacement.

Source of the values: ChEMBL document CHEMBL1806350, “Probes for narcotic receptor mediated phenomena. 43. Synthesis of the ortho-a and para-a, and improved synthesis and optical resolution of the ortho-b and para-b oxide-bridged phenylmorphans: compounds with moderate to low opioid-receptor affinity” (Bioorg Med Chem, 2011).
